Source: US8252807B2, “Methods of inhibiting the interaction between S100 and the receptor for advanced glycation end-products” (Board of Regents, The University of Texas System, priority 2007, dated 2012)

Columns and labels:
SKOV3 ovarian cells = test: SKOV3 ovarian cell viability with taxol; type: cell-based; details: taxol 5 μM, cromolyn 10 μM, 48 hours
Description: SKOV3 ovarian cells were plated and treated with taxol (5 μM) either in the presence or absence of cromolyn (10 μM) for 48 hours. Cell viability was analyzed after 48 hours. *, P<0.05.

PC3 prostate cells = test: PC3 prostate cell proliferation; type: cell-based; details: 24, 48 and 72 hours
Description: PC3 prostate cells were cultured for up to three days in the presence of different concentrations of cromolyn, and cell proliferation was analyzed at 24, 48, and 72 hours. *, P<0.05.

S100B with RAGE = S100B with RAGE (Homo sapiens, UniProt P04271); test: S100B binding with RAGE ELISA (sRAGE coated plate)
From the text: After removing un-bound S100B by washing with detergent, bound S100B and RAGE complex was quantified by adding HRP labeled antibody against S100B.

SW480 colon cells = test: SW480 colon cell proliferation; type: cell-based; details: cromolyn 100 μM, up to three days
Description: SW480 colon cells were cultured for up to three days in the presence of cromolyn (100 μM), and cell proliferation was analyzed. *, P<0.05.

Panc-1 cells = test: Panc-1 cell growth (MTS); type: cell-based
Description: Panc-1 pancreatic adenocarcinoma cells (1.0×10^3 cells/well) were cultured in the presence or absence of S100P (100 nM) and with or without cromolyn (100 μM), and cell proliferation was analyzed at 24, 48, and 72 hours. Means and 95% confidence intervals of three independent experiments performed in triplicate are shown. *, P=0.001, S100P alone versus S100P+cromolyn.
Panc-1 cells were plated at 1.0×10^3 cells/well and treated with platelet-derived growth factor (10 ng/mL) with or without cromolyn (100 μM), and cell proliferation was analyzed after 48 hours. Means and 95% confidence intervals of three independent experiments performed in triplicate are shown. *, P=0.004 PDGF and P=0.022 cromolyn+PDGF versus control.
Growth of Panc-1 and BxPC3 pancreatic adenocarcinoma cells was analyzed using MTS reagent (Promega, Madison, Wis.) according to the manufacturer's directions. Purified S100P (100 nM final concentration) with or without cromolyn (100 μM final concentration) was added to Panc-1 cells. Only cromolyn (0-100 μM) was added to BxPC-3 cells, which express endogenous S100P. For both cell models, 1.0×10^3 cells/well were plated in 96-well culture dishes. Cells were treated with S100P, PDGF, or cromolyn, or a combination, followed immediately by treatment with either S100P or PDGF. MTS (20 μL per well) was added to cells at various times, and the mixture was incubated for 1 hour at 37° C. Samples were then read at 490 nm (as O.D. units) on a uQuant-Microplate Spectrophotometer (Bio-Tek Services Inc., Richmond, Va.). The assay was performed three times in triplicate.

S100P and RAGE = biological target: T1, S100P and RAGE (Homo sapiens, UniProt P25815); test: Co-immunoprecipitation of S100P and RAGE from BxPC-3 cell lysates; type: binding; details: cromolyn 100 μM
T1 construct: endogenous in cells; host or cells: BxPC-3 pancreatic adenocarcinoma cell lysate
T1 sequence (P25815 1-95): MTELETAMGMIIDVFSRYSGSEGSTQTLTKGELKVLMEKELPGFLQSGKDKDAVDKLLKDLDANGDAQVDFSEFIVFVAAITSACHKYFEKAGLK
Description: Receptor for advanced glycation end products (RAGE) was identified in the immunoprecipitates by immunoblotting with a goat polyclonal anti-RAGE antibody and anti-S100P as an internal control. In the lower panel, one representative blot and densitometric analysis (means and 95% confidence intervals [CIs]) of three independent experiments is shown. *P<0.001, versus IP α-S100P without cromolyn.
For co-immunoprecipitation experiments, BxPC-3 cell lysates were incubated in the absence or presence of cromolyn (100 μM) at 4° C. overnight. S100P was immunoprecipitated using a mouse monoclonal anti-S100P antibody (Transduction Laboratories, San Diego, Calif.) for 6 hours at 4° C. and IgG-immobilized beads (Pierce Biotechnology, Inc. Rockford, Ill.). Antibody-associated proteins were electrophoresed on 10% polyacrylamide gels and electrophoretically transferred to nitrocellulose membranes. Membranes were blocked in PBS/5% milk overnight at 4° C. RAGE was detected using a goat polyclonal anti-RAGE antibody (1:200, Santa Cruz, Santa Cruz, Calif.), and S100P was detected using a goat polyclonal anti-S100P antibody (1:50, R & D systems, Minneapolis, Minn.) by immunoblotting as described in Arumugam, et al., S100P stimulates cell proliferation and survival via receptor for activated glycation end products (RAGE); J. Biol. Chem. 2004 Feb. 13; 279(7):5059-65. Briefly, membranes were incubated in primary antibody for 1 hour at room temperature followed by incubation with horseradish peroxidase-labeled secondary antibody for 30 minutes at room temperature. After a thorough wash in TBS-T buffer (1M Tris-HCL pH 8.3, 3M NaCl, 0.1% Tween-20), antibody-protein complexes were detected by using a chemiluminescent substrate (GE Healthcare Bio-Sciences Corp., Piscataway, N.J.). The intensity of the band was estimated (as density units) using densitometry (GS-250 Molecular Imaging System, Bio-Rad Laboratories, Richmond, Calif.). The experiment was repeated three times.

[1] = tested on: NFκB activity in MPanc-96 cells; test: S100P stimulated NFκB luciferase reporter, MPanc-96; type: cell-based, human; details: S100P 100 nM, compound 1 μM, 5 hours
Description: MPanc-96 pancreatic cancer cell lines stably expressing an NFκB luciferase reporter were examined for the effects of S100P, cromolyn and C5. Cells were plated at 5.0×10^3 cells/well, treated for 5 hours with 100 nM of S100P, with or without cromolyn and C5 (1 μM), and activity of a luciferase gene driven by the NFkB promoter was analyzed. P=0.05 C5 versus cromolyn. Two-tailed two-sample (unpaired) Student's t-tests were used to determine P values.

S100B with RAGE, sequence (P04271 whole entry, species assumed): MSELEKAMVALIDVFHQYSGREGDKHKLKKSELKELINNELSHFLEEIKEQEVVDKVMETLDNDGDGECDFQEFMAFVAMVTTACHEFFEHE

co-immunoprecipitation of S100P and RAGE, difference control versus cromolyn (S100P and RAGE): 25640 density units
total amount of S100P immunoprecipitated (S100P and RAGE): no effect
co-immunoprecipitation of S100P and RAGE, mean (S100P and RAGE; control mean=34040): 8410 density units
Compound: O=C(O)c1cc(=O)c2c(OCC(O)COc3cccc4oc(C(=O)O)cc(=O)c34)cccc2o1 [cromolyn, disodium 1,3-bis[(2′-carboxylatochromon-5′-yl)oxy]-2-hydroxypropane]
cell killing effect of taxol on ovarian cancer cells (SKOV3 ovarian cells): increased the cell killing effect of taxol
growth of PC3 cells (PC3 prostate cells): reduced growth
interaction of S100B with RAGE (S100B with RAGE): inhibit the interaction of S100B with RAGE
growth of SW480 cells (SW480 colon cells): reduced growth
serum stimulated Panc-1 cell proliferation (Panc-1 cells): did not influence
PDGF-stimulated Panc-1 growth in presence of cromolyn (Panc-1 cells; PDGF 10 ng/mL, cromolyn 100 μM, 48 hours): nor did it inhibit growth stimulation caused by PDGF
Panc-1 cell proliferation, mean (Panc-1 cells; S100P 100 nM + cromolyn 100 μM): 0.56 MTS units
Panc-1 cell proliferation, difference S100P versus S100P+cromolyn (Panc-1 cells; S100P 100 nM, cromolyn 100 μM): 0.37 MTS units
effects of exogenous S100P treatment on Panc-1 proliferation (Panc-1 cells; S100P 100 nM, cromolyn 100 μM): completely blocked
Panc-1 cell proliferation, cromolyn treatment alone (Panc-1 cells; no S100P): no effect
NFκB activity in pancreatic cancer cells in vitro [1]: inhibit NFκB activity
